“And” between values parts separate entries of the source, which are not always exact repeats. Equal values may be shown once.
Columns and labels:
recombinant WT ezrin = recombinant WT ezrin (Mus musculus, UniProt P26040); assay: SPR direct binding to immobilized recombinant WT ezrin
actin = assay: SPR binding to actin; settings: read-out: KD for binding to actin; negative control; data not shown
PKCΙ = biological target: T1, PKCΙ (Homo sapiens, UniProt P41743); assay: Biacore direct interaction with PKCΙ; settings: read-out: KD for binding to PKCΙ, data not shown
T1 sequence (P41743 1-596): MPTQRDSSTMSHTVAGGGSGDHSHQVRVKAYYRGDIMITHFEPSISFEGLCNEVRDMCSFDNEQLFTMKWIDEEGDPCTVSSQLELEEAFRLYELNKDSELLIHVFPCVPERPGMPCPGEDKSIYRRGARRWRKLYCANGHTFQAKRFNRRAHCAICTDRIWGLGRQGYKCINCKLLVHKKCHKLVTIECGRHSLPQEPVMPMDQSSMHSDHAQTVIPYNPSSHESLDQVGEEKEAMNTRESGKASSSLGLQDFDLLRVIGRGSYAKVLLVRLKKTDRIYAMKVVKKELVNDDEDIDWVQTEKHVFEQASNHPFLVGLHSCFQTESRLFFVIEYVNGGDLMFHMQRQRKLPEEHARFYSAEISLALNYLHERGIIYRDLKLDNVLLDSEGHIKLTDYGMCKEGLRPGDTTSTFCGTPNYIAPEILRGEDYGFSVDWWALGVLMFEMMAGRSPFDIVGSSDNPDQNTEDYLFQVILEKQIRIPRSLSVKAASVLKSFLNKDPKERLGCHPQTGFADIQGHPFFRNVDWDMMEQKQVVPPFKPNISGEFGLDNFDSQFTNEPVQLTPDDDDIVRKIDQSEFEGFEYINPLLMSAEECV

[1] = biological target: PKCΙ phosphorylation of moesin (Homo sapiens, UniProt P26038); assay: In vitro kinase assay: PKCΙ phosphorylation of moesin; type: biochemical; settings: read-out: IC50, PKCΙ phosphorylation of moesin
PKCΙ phosphorylation of moesin, sequence (P26038 whole entry): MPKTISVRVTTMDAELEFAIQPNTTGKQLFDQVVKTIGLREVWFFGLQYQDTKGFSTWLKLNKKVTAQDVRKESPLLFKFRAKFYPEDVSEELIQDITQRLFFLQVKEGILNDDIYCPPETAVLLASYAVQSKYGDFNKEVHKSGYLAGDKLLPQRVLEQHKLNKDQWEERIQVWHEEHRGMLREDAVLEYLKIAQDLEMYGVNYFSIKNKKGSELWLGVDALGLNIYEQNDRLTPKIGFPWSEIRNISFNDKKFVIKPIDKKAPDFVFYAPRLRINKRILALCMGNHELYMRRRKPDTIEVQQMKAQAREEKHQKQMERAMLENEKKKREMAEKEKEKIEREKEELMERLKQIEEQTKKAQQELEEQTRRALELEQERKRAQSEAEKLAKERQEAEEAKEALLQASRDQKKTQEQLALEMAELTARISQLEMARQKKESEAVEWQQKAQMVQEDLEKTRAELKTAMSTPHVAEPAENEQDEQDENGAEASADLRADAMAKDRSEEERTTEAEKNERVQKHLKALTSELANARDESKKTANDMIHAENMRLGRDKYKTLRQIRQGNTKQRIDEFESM

[2] = biological target: PKCΙ phosphorylation of radixin (Homo sapiens, UniProt P35241); assay: In vitro kinase assay: PKCΙ phosphorylation of radixin; type: biochemical; settings: read-out: IC50, PKCΙ phosphorylation of radixin
PKCΙ phosphorylation of radixin, sequence (P35241 whole entry, canonical isoform): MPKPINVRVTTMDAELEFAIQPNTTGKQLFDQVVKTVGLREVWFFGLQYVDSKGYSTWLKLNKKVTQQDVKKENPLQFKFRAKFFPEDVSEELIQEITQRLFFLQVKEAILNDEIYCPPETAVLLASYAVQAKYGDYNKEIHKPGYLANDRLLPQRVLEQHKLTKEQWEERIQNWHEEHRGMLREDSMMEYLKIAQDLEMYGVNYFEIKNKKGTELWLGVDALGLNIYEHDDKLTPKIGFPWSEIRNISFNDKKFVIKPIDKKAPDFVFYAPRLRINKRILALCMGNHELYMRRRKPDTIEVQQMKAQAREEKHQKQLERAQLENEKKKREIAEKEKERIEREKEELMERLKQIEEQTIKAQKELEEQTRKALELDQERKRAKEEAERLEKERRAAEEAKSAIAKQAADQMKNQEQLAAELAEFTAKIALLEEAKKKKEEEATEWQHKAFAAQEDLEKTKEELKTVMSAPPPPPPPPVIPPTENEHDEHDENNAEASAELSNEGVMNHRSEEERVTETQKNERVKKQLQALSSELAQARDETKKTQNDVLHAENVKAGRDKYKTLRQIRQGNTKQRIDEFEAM

PKCΙ, α and γ = assay: Radioactive in vitro kinase profiling of PKC isoforms on non-specific substrate; type: biochemical; settings: myelin basic protein substrate; maximum 100 μM
[3] = biological target: endogenous ezrin in K7M2 OS cells (Mus musculus, UniProt P26040); assay: Immunoprecipitation/immunoblotting of endogenous ezrin in K7M2 cells; type: cell-based, murine; settings: 10 μM, 6 h
endogenous ezrin in K7M2 OS cells, sequence (P26040 whole entry): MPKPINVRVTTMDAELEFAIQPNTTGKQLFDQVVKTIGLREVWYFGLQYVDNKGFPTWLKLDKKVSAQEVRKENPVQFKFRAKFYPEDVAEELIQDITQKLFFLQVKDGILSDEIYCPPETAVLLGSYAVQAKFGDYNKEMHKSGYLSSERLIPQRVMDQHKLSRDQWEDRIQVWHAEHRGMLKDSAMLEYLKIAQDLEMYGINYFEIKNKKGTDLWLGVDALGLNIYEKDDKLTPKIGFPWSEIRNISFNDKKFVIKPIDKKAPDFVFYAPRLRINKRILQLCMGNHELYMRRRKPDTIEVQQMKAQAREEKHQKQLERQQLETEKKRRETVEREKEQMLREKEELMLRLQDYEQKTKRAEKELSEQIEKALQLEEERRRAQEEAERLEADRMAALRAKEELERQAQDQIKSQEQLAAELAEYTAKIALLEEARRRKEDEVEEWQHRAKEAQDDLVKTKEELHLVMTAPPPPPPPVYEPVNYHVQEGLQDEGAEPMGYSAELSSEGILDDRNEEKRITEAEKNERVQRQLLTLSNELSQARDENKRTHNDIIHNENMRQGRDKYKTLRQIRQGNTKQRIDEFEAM

K7M2 cells [4] = assay: Invasion of HUVEC monolayer by K7M2 cells; type: cell-based, murine; settings: 10 μM, 5 h, vs DMSO (1%)
K12 cells = assay: Invasion of HUVEC monolayer by K12 cells; type: cell-based, murine; settings: 10 μM
[5] = test system: K7M2 cells, K12 cells or HUVECs; assay: Cell viability assays; type: cell-based; settings: 10 μM; K7M2, K12, HUVEC; data not shown
K7M2 cells [6] = assay: Cell migration assay for synergy; type: cell-based, murine; settings: combination of NSC305787 and NSC668394
Xenopus embryos = assay: Xenopus embryo development assay; type: in vivo
[7] = test system: GFP-expressing K7M2 OS cells in lung slices; assay: Ex vivo mouse lung organ culture; type: cell-based; settings: 10 μM, vs DMSO 1%
[8] = test system: K7M2 lung metastasis in BALB/c mice; assay: In vivo experimental lung metastasis model, K7M2 cells; set-up: species or system mouse
[9] = test system: MNNG-HOS lung metastasis in SCID/Beige mice; assay: In vivo experimental lung metastasis model, MNNG-HOS cells; set-up: species or system mouse
[10] = mouse
zebrafish embryos = assay: Zebrafish embryo development assay

recombinant WT ezrin, sequence (P26040 whole entry): as above

OC(c1cc(C23CC4CC(CC(C4)C2)C3)nc2c(Cl)cc(Cl)cc12)C1CCCCN1 (centres unmarked) [NSC305787]
binding kinetics on ezrin (recombinant WT ezrin; comparison of the two compounds): bound to and dissociated faster from ezrin than NSC668394
Kd (recombinant WT ezrin; read-out: KD for binding to ezrin, average of five independent experiments): 5.85 µM and ~10 µM
Kd (actin): 91.4 µM
Kd (PKCΙ): 172 µM
IC50 [1]: 9.4 µM
IC50 [2]: 55 µM
inhibition of PKC activity (PKCΙ, α and γ) (PKCΙ, α and γ): required higher concentration than that required to inhibit ezrin phosphorylation
T567 phosphorylation of endogenous ezrin [3]: inhibited
actin binding of endogenous ezrin [3]: inhibited
cellular ezrin levels [3]: without altering cellular ezrin levels
invasion by K7M2 cells on HUVEC monolayer (K7M2 cells [4]): inhibited invasion
invasion by K12 cells on HUVEC monolayer (K12 cells): no effect on invasion
cytotoxicity [5]: Neither compound was cytotoxic
synergy between both compounds in cellular migration (K7M2 cells [6]): do not show any synergy
Xenopus embryo phenotype at stage 12.5 (Xenopus embryos; 10 μM): gastrulation defects
Xenopus embryo phenotype by stage 37 (Xenopus embryos; 10 μM): delays in development and ventral defects
Xenopus embryo phenotype by stage 50 (Xenopus embryos; 10 μM): short and bent tails and reduced eyes
Xenopus embryo phenotype at high concentration (Xenopus embryos; 40 μM): severe gastrulation defects and embryonic death
lung metastases growth of K7M2 cells in organ culture (GFP fluorescence) [7]: significantly inhibited
number of GFP-expressing metastatic foci in lung tissues ([8]; K7M2-injected mice): significant decrease
overall survival vs vehicle group ([8]; K7M2, log-rank, P = 0.0337 (NSC305787), P = 0.0524 (NSC668394)): significantly different from that of the vehicle-treated group
phospho-ezrin levels in lung–liver–kidney–spleen–skin samples ([8]; treated vs control (DMSO) animals): did not observe any meaningful differences
median survival ([9]; MNNG-HOS tail vein, vehicle 50.5 days): 49 days
number of GFP-expressing metastatic foci in lung tissues ([9]; MNNG-HOS-injected mice): no differences
survival, control vs treatment groups ([9]; MNNG-HOS-injected mice): no difference in survival
in vivo tolerability [10]: very well tolerated in vivo without any obvious acute toxicity
zebrafish embryo phenotype (zebrafish embryos; 10 μM): mimicked the ezrin MO phenotype
embryos with epiboly defects (zebrafish embryos; 10 μM, 12 of 81 embryos): 15%
embryos with epiboly defects (zebrafish embryos; 20 μM, 71 of 71 embryos): 100%

— publication PMC3513970 (Oncogene, 2011)
